As usually defined, the IC50 is the concentration that gives 50% inhibition.

Assay [1] concerns the target KRAS G12D (Homo sapiens (Human), UniProt P01116, G12D). In words: KRAS G12D LoEnz Biochemical Assay, BODIPY-GDP Exchange TR-FRET (SOS1-mediated nucleotide exchange). The settings on record: read-out: KRas (G12D) GDP HTRF IC50. (In TR-FRET formats the signal depends on donor and acceptor labels being close together.)
For assay [2], the target named is KRAS WT (Homo sapiens (Human), UniProt P01116). In words: KRAS WT Biochemical Assay, BODIPY-GDP Exchange TR-FRET (Example 502; 0.06 nM KRAS WT, 15 nM GDP, 300 nM SOS1, 120-minute incubation). The settings on record: read-out: KRas HTRF IC50. As to the method: Example 502: KRAS WT Biochemical Assay, BODIPY-GDP Exchange TR-FRET. Biochemical compound potencies are assessed by evaluating inhibition of SOS1-mediated nucleotide exchange in KRAS WT. In this assay, the SOS1-promoted exchange of fluorescently-labeled GDP (BOPIDY-GDP) is monitored by time-resolved fluorescence resonance energy transfer (TR-FRET). Compounds solubilized in DMSO are dispensed as concentration series into 384-well white assay plates. A preformed complex of 0.06 nM biotin-tagged recombinant human KRAS WT, 15 nM GDP and 0.06 nM terbium-labeled streptavidin (CisBIO) prepared in 10 uL/well assay buffer (20 mM HEPES, pH 7.5, 50 mM NaCl, 10 mM MgCl2, 0.01% Tween-20 and 1 mM dithiothreitol) is added and allowed to incubate for 10-minutes at room temperature. The reaction is initiated with the addition of 5 uL 300 nM recombinant human SOS1 and 300 nM BODIPY-GDP in assay buffer. After a 120-minute incubation, the fluorescence is measured with excitation at 337 nm and emission at 490 and 520 nm. The TR-FRET ratio is determined as the fluorescence at 520 nm divided by the fluorescence at 490 nm multiplied by 10,000. The results are normalized to percent inhibition based on control samples: DMSO (0% inhibition) and control compound at a concentration that inhibits completely (100% inhibition). The normalized TR-FRET results are plotted against compound concentration, and the data are fit to a 4-parameter Hill equation to determine the IC50 values.
Chain of KRAS WT (P01116-2 other isoform, or with tags, fused parts or gaps): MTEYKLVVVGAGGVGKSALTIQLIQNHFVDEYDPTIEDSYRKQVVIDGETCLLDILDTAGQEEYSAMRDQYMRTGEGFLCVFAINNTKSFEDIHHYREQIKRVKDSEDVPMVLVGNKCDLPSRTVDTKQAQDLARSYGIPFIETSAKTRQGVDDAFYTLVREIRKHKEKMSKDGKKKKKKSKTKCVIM

Chain of KRAS G12D (P01116-2 other isoform, or with tags, fused parts or gaps G12D): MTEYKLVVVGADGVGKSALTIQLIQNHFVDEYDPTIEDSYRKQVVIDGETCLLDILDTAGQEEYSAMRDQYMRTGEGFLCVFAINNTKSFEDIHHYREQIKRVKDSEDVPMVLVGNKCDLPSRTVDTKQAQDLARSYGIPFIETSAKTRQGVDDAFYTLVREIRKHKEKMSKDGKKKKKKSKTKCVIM

With `C[C@@H]1Oc2nc(-c3cc(N)c(F)cc3C(F)(F)F)c(F)c3nc(OC[C@@H]4CC[C@H]5COCCN54)nc(c23)N2C[C@H]3CC[C@H](N3)[C@@H]12` [Compound 70, 2-Fluoro-5-((5S,5aS,6S,9R)-1-fluoro-12-(((6S,8aS)-hexahydro-1H-pyrrolo[2,1-c][1,4]oxazin-6-yl)methoxy)-5-methyl-5a,6,7,8,9,10-hexahydro-5H-4-oxa-3,10a,11,13,14-pentaaza-6,9-methanonaphtho[1,8-ab]heptalen-2-yl)-4-(trifluoromethyl)aniline], the IC50 is 0.71 nM in assay [1] and 169 nM in assay [2].
`C#Cc1c(F)ccc2cc(N)cc(-c3nc4c5c(nc(OC[C@]67CCN6CC(F)(F)C7)nc5c3F)N3C[C@H]5CC[C@H](N5)[C@H]3[C@H](C)O4)c12` [Compound 110, 4-((5S,5aS,6S,9R)-12-(((R)-3,3-Difluoro-1-azabicyclo[3.2.0]heptan-5-yl)methoxy)-1-fluoro-5-methyl-5a,6,7,8,9,10-hexahydro-5H-4-oxa-3,10a,11,13,14-pentaaza-6,9-methanonaphtho[1,8-ab]heptalen-2-yl)-5-ethynyl-6-fluoronaphthalen-2-amine]: the half-maximal inhibitory concentration (IC50) in assay [1] was found to be 0.15 nM; in assay [2], 7.75 nM.
On the same counts, the results for `Cc1c(F)c(N)cc(-c2nc3c4c(nc(OC[C@@H]5CC[C@@H]6C[C@@H](F)CN65)nc4c2F)N2C[C@H]4CC[C@H](N4)[C@H]2[C@H](C)O3)c1C(F)(F)F` (single isomer, unassigned) [152 (isomer 2)] are 3.23 nM and 526 nM.
On the same counts, the results for `Cc1c(F)c(N)cc(-c2nc3c4c(nc(OC[C@@H]5CC[C@@H]6CC(F)(F)CCN65)nc4c2F)N2C[C@H]4CC[C@H](N4)[C@H]2[C@H](C)O3)c1C(F)(F)F` (single isomer, unassigned) [119 (isomer 1)] are 4.38 nM and 787 nM.
Consider `C[C@@H]1Oc2nc(-c3nc(N)c(F)cc3C(F)(F)F)c(F)c3nc(OC[C@@]45CCCN4CC4(CC4(F)F)C5)nc(c23)N2C[C@H]3CC[C@H](N3)[C@@H]12` (stereo partly drawn) [Compound 86, 6-((5S,5aS,6S,9R)-12-(((7a′S)-2,2-difluorodihydro-1′H,3′H-spiro-[cyclopropane-1,2′-pyrrolizin]-7a′(5′H)-yl)methoxy)-1-fluoro-5-methyl-5a,6,7,8,9,10-hexahydro-5H-4-oxa-3,10a,11,13,14-pentaaza[6,9]methanonaphtho[1,8-ab]heptalen-2-yl)-3-fluoro-5-(trifluoromethyl)pyridin-2-amine], for which the IC50 in assay [1] was 4.67 nM; in assay [2] it was 248 nM.
Regarding `Cc1c(F)c(N)cc(-c2nc3c4c(nc(OC[C@@]56CCC(C)N5C[C@H](F)C6)nc4c2F)N2C[C@H]4CC[C@H](N4)[C@H]2[C@H](C)O3)c1C(F)(F)F` (stereo partly drawn) [Compound 122, 2-fluoro-5-((5S,5aS,6S,9R)-1-fluoro-12-(((2R,7aS)-2-fluoro-5-methyltetrahydro-1H-pyrrolizin-7a(5H)-yl)methoxy)-5-methyl-5a,6,7,8,9,10-hexahydro-5H-4-oxa-3,10a,11,13,14-pentaaza-6,9-methanonaphtho[1,8-ab]heptalen-2-yl)-3-methyl-4-(trifluoromethyl)aniline], the values for the IC50 in assay [1] and in assay [2] were 0.11 nM and 3.72 nM, respectively.
In the case of `Cc1c(F)c(N)cc(-c2nc3c4c(nc(OC[C@@H]5CC[C@H]6COCCN65)nc4c2F)N2C[C@H]4CC[C@H](N4)[C@H]2[C@H](C)O3)c1CC(F)(F)F` [Compound 113, 2-fluoro-5-((5S,5aS,6S,9R)-1-fluoro-12-(((6S,8aS)-hexahydro-1H-pyrrolo[2,1-c][1,4]oxazin-6-yl)methoxy)-5-methyl-5a,6,7,8,9,10-hexahydro-5H-4-oxa-3,10a,11,13,14-pentaaza-6,9-methanonaphtho[1,8-ab]heptalen-2-yl)-3-methyl-4-(2,2,2-trifluoroethyl)aniline], the values for the IC50 in assay [1] and in assay [2] were 0.31 nM and 65.6 nM, respectively.
For `Cc1cc(N)cc(-c2nc3c4c(nc(OC[C@]56CCCN5CC(F)(F)C6)nc4c2F)N2C[C@H]4CC[C@H](N4)[C@H]2[C@H](C)O3)c1C(F)(F)F` [Compound 69, 3-((5S,5aS,6S,9R)-12-(((R)-2,2-Difluorotetrahydro-1H-pyrrolizin-7a(5H)-yl)methoxy)-1-fluoro-5-methyl-5a,6,7,8,9,10-hexahydro-5H-4-oxa-3,10a,11,13,14-pentaaza-6,9-methanonaphtho[1,8-ab]heptalen-2-yl)-5-methyl-4-(trifluoromethyl)aniline], the 50% inhibitory concentration (IC50) was 0.31 nM in assay [1] and 40.9 nM in assay [2].
For `Cc1cc(N)cc(-c2nc3c4c(nc(OC[C@@]56CCCN5CC5(CC5(F)F)C6)nc4c2F)N2C[C@H]4CC[C@H](N4)[C@H]2[C@H](C)O3)c1C(F)(F)F` (stereo partly drawn) [Compound 68, 3-((5S,5aS,6S,9R)-12-(((7a′S)-2,2-Difluorodihydro-1′H,3′H-spiro[cyclopropane-1,2′-pyrrolizin]-7a′(5′H)-yl)methoxy)-1-fluoro-5-methyl-5a,6,7,8,9,10-hexahydro-5H-4-oxa-3,10a,11,13,14-pentaaza[6,9]methanonaphtho[1,8-ab]heptalen-2-yl)-5-methyl-4-(trifluoromethyl)aniline], in that order: 0.07 nM and 0.112 nM.
On the same counts, the results for `Cc1c(F)c(N)cc(-c2nc3c4c(nc(OCC5(CN6C[C@@H]7C[C@H]6CO7)CC5)nc4c2F)N2C[C@H]4CC[C@H](N4)[C@H]2[C@H](C)O3)c1C(F)(F)F` [Compound 169, 5-((5S,5aS,6S,9R)-12-((1-(((1S,4S)-2-Oxa-5-azabicyclo[2.2.1]heptan-5-yl)methyl)cyclopropyl)methoxy)-1-fluoro-5-methyl-5a,6,7,8,9,10-hexahydro-5H-4-oxa-3,10a,11,13,14-pentaaza-6,9-methanonaphtho[1,8-ab]heptalene-2-yl)-2-fluoro-3-methyl-4-(trifluoromethyl)aniline] are 0.1 nM and 2.31 nM.
`Cc1cc(N)cc(-c2nc3c4c(nc(OC[C@]56CCN5CC(F)(F)C6)nc4c2F)N2C[C@H]4CC[C@H](N4)[C@H]2[C@H](C)O3)c1C(F)(F)F` [Compound 60, 3-((5S,5aS,6S,9R)-12-(((R)-3,3-Difluoro-1-azabicyclo[3.2.0]heptan-5-yl)methoxy)-1-fluoro-5-methyl-5a,6,7,8,9,10-hexahydro-5H-4-oxa-3,10a,11,13,14-pentaaza-6,9-methanonaphtho[1,8-ab]heptalen-2-yl)-5-methyl-4-(trifluoromethyl)aniline]: the IC50 in assay [1] was 0.18 nM; in assay [2] it was 4.55 nM.
Take `Cc1c(F)c(N)cc(-c2nc3c4c(nc(OC[C@@]56C[C@H](F)CN5C[C@H](F)C6)nc4c2F)N2C[C@H]4CC[C@H](N4)[C@H]2[C@H](C)O3)c1C(F)(F)F` [Compound 142, 5-((5S,5aS,6S,9R)-12-(((2R,6S,7as)-2,6-Difluorotetrahydro-1H-pyrrolizin-7a(5H)-yl)methoxy)-1-fluoro-5-methyl-5a,6,7,8,9,10-hexahydro-5H-4-oxa-3,10a,11,13,14-pentaaza-6,9-methanonaphtho[1,8-ab]heptalen-2-yl)-2-fluoro-3-methyl-4-(trifluoromethyl)aniline]: the IC50 in assay [1] was 0.2 nM; in assay [2], 33.2 nM.
As to `Cc1c(F)c(N)cc(-c2nc3c4c(nc(OCC[C@@H]5CC[C@H]6COCCN56)nc4c2F)N2C[C@H]4CC[C@H](N4)[C@H]2[C@H](C)O3)c1C(F)(F)F` [Compound 154, 2-Fluoro-5-((5S,5aS,6S,9R)-1-fluoro-12-(2-((6S,8aS)-hexahydro-1H-pyrrolo[2,1-c][1,4]oxazin-6-yl)ethoxy)-5-methyl-5a,6,7,8,9,10-hexahydro-5H-4-oxa-3,10a,11,13,14-pentaaza-6,9-methanonaphtho[1,8-ab]heptalen-2-yl)-3-methyl-4-(trifluoromethyl)aniline], the IC50 in assay [1] was 0.47 nM; in assay [2], 118 nM.
On the same counts, the results for `Cc1cc(N)c(Cl)c(-c2nc3c4c(nc(OC[C@@H]5CC[C@H]6COCCN65)nc4c2F)N2C[C@H]4CC[C@H](N4)[C@H]2[C@H](C)O3)c1C(F)(F)F` [Compound 103, 2-Chloro-3-((5S,5aS,6S,9R)-1-fluoro-12-(((6S,8aS)-hexahydro-1H-pyrrolo[2,1-c][1,4]oxazin-6-yl)methoxy)-5-methyl-5a,6,7,8,9,10-hexahydro-5H-4-oxa-3,10a,11,13,14-pentaaza-6,9-methanonaphtho[1,8-ab]heptalen-2-yl)-5-methyl-4-(trifluoromethyl)aniline] are 0.86 nM and 224 nM.
On the same counts, the results for `Cc1c(F)c(N)cc(-c2nc3c4c(nc(OC[C@@H]5[C@@H]6CCN5CCO6)nc4c2F)N2C[C@H]4CC[C@H](N4)[C@H]2[C@H](C)O3)c1C(F)(F)F` [Compound 136, 5-((5S,5aS,6S,9R)-12-(((5S,8R)-4-Oxa-1-azabicyclo[3.2.1]octan-8-yl)methoxy)-1-fluoro-5-methyl-5a,6,7,8,9,10-hexahydro-5H-4-oxa-3,10a,11,13,14-pentaaza-6,9-methanonaphtho[1,8-ab]heptalen-2-yl)-2-fluoro-3-methyl-4-(trifluoromethyl)aniline] are 0.38 nM and 90.8 nM.

For the origin of these results see patent US20240025919A1, “AZA-TETRACYCLIC OXAZEPINE COMPOUNDS AND USES THEREOF” (Genentech, Inc., priority 2022, published 2024).
